Laboratory results published in publication PMC9852121, “Targeted α-therapy using astatine (^211At)-labeled PSMA1, 5, and 6: a preclinical evaluation as a novel compound” (European Journal of Nuclear Medicine and Molecular Imaging, 2022).
Like-named read-outs stand apart in the source and are kept apart here.

Columns and labels:
LNCaP xenograft [1] = test: Planar imaging with γ camera in LNCaP xenograft mice; format: in vivo, NOD/SCID mice; settings: 3 and 24 h post-injection
Experimental: Planar imaging was performed using a γ camera system (E-cam, Siemens) at 3 and 24 h after administration, targeting the X-rays emitted from the daughter nuclide ^211Po (energy window: 79 keV ± 20%). Image analysis was performed by setting the regions of interest in the tumor and kidneys using AMIDE software (version 1.0.4).

[2] = Plasma BUN and creatinine (renal function) in ICR mice; format: in vivo; settings: 8 weeks after administration, Supplementary Fig. S2
Experimental: Plasma was obtained by centrifuging a portion of the blood sample collected at the time of euthanasia and was measured using a dry clinical chemistry analyzer (SPOTCHEM D-00 QR D-02; ARKRAY, Inc., Kyoto, Japan). Blood urea nitrogen (BUN) and creatinine (Cre) levels were also measured. Cre values less than 0.2 were considered 0.2 in the statistical analysis.

LNCaP xenograft [3] = test: Treatment effect in LNCaP xenograft mice (tumor size, body weight); format: in vivo, NOD/SCID mice; settings: single administration 0.4 MBq, versus saline
Text: (§1) Non-obese diabetic/severe combined immunodeficiency (NOD/SCID) mice (5 weeks old, male) were purchased from Charles River Japan, Inc. (Atsugi, Japan). LNCaP cells were suspended in a 1:1 mixture of medium and Matrigel (Corning, USA), subcutaneously implanted into the unilateral flank of the mice (approximately 6–10 × 10^6 cells), and used approximately 5 weeks later (range, 4–8 weeks). Institute of Cancer Research (ICR) mice (6 weeks old, male) were purchased from Japan SLC, Inc. (Shizuoka, Japan) and used as a non-tumor-bearing cohort for the evaluation of biodistribution and histology.
LNCaP xenograft mice (body weight = 21.8 ± 5.98 g) were administered [^211At]PSMA5 (0.39 ± 0.03 MBq, 0.002 μg, n = 12), [^211At]PSMA1 (0.40 ± 0.07 MBq, 0.002 μg, n = 5), or saline (n = 10). […] Non-radiolabeled PSMA5 (high mass, 0.02 μg; low mass, 0.002 μg) and PSMA1 (high mass, 0.02 μg; low mass, 0.002 μg) were also administered to LNCaP xenograft mice (each n = 3) and compared with saline-injected mice (n = 3) to assess the absence of antitumor effect by the PSMA compound itself. […] The body weight (g) was also monitored.

[4] = In vivo deastatination / metabolites in blood and urine; parameters: species or system mice
[5] = Histopathological evaluation of organs in normal ICR mice; format: in vivo; settings: for Histopathology of kidney parenchyma, salivary gland, stomach, thyroid, spleen and small intestine: 8 weeks after 0.4 MBq
Experimental: (§2) The excised organs and tissues were fixed in a 10% neutral buffered formalin solution. After fixation, paraffin sections were prepared and stained with hematoxylin and eosin. Specimens were evaluated using an integrated microscope (BZ-X810; Keyence Corporation, Osaka, Japan). Histological evaluation was performed by a toxicopathology specialist with the support of KAC Co. Ltd. (Kyoto, Japan).

[6] = Urine analysis with urinalysis test strips (protein) in normal ICR mice; format: in vivo; settings: for Urine test of protein: individual animals No. 1-3
LNCaP xenograft [7] = test: Biodistribution in LNCaP xenograft model (NOD/SCID mice); format: in vivo; settings: for Total excretion in the urine / Total excretion in the feces: Fig. 3 legend, mouse strain not given; for Tumor retention (uptake): about 0.11-0.12 MBq; for Kidney uptake, comparison [211At]PSMA5 versus [211At]PSMA6: 3 h post-injection, NOD/SCID mice
Text: as §1
(§3) High PSMA expression was already confirmed in LNCaP xenografts in our previous study. The brain, thyroid, salivary gland, lung, heart, liver, spleen, pancreas, stomach, small intestine, colon, kidney, bone, testis, blood, urine, feces, and tumor were excised and weighed to evaluate biodistribution after euthanasia at 3 and 24 h after administration. Urine excretion was determined from absorption to filter paper or by urine collection in the cage, and feces were collected from the cage. Radioactivity was measured using a 2480 Wizard^2 γ counter. The detection efficiency for ^211At with the γ counter was calibrated by measurement of the ^211At source whose radioactivity was determined with a Ge semiconductor detector (BE2020, Mirion Technologies (Canberra), Connecticut, USA). Uptake was calculated as the percentage of injected dose (%ID).

[8] = Histopathological evaluation of organs in LNCaP xenograft mice; format: in vivo; settings: LNCaP xenograft NOD/SCID mice, 3 and 6 weeks after 0.4 MBq
Experimental: as §2

[9] = Biodistribution in normal ICR mice; format: in vivo; settings: 3 h post-injection
Text: as §1
as §3, with “The brain, thyroid, salivary gland, lung, heart, liver, spleen, pancreas, stomach, small intestine, colon, kidney, bone, testis, blood, urine, feces, and tumor were excised and weighed to evaluate biodistribution after euthanasia at 3 and 24 h after administration.” left out

[10] = tested on: LNCaP cells (high expression of PSMA); test: In vitro cellular uptake analysis (LNCaP versus PC-3 cells); format: cell-based, human; settings: 30 min incubation, Fig. 2; for Cellular uptake, LNCaP cells compared with PC-3 cells: LNCaP high, PC-3 low PSMA expression
Text: Human prostate cancer cell lines, prostatic carcinoma-3 (PC-3) (low expression of PSMA), and lymph node carcinoma of the prostate (LNCaP) (high expression of PSMA) were obtained from the RIKEN Cell Bank (Tsukuba, Japan). Cells were maintained in a culture medium, Roswell Park Memorial Institute 1640 medium (FUJIFILM Wako Pure Chemical Corporation, Osaka, Japan), supplemented with 10% heat-inactivated fetal bovine serum (Gibco) and 1% penicillin-streptomycin (FUJIFILM Wako Pure Chemical). The medium for LNCaP was supplemented with 1% sodium pyruvate (FUJIFILM Wako Pure Chemical) in a culture medium. Cells were seeded in 24-well plates (5 × 10^4/well) and cultured for 2 days. After washing twice with phosphate-buffered saline (PBS) (−), the culture medium was changed to Hanks’ balanced salt solution (+). After treatment with [^211At]PSMA1 or [^211At]PSMA5 (approximately 30–50 kBq/well), cells were washed twice with PBS (–). After washing, all cells were lysed with 0.1 N sodium hydroxide, and the radioactivity of the cells was calculated using a 2480 Wizard^2 γ counter (Perkin Elmer, MA, USA). Protein levels were measured using a plate reader (MultiScan FC, Thermo Fisher) and the BCA Protein Assay Kit (FUJIFILM Wako Pure Chemical). Uptake (%uptake/mg protein) was compared between PC-3 and LNCaP cells at 30 min after incubation with [^211At]PSMA1 or [^211At]PSMA5.

[11] = parameters: method as in PMID 27789722, PMID 27889802; settings: mice; cited from earlier work
[12] = parameters: method as in PMID 27789722, PMID 27889802; settings: humans; cited from earlier work
[13] = parameters: method as in PMID 27230930; settings: cited from earlier work

| SMILES | Changes in body weight (LNCaP xenograft [3]) | Treatment effect on tumor growth (tumor size) (LNCaP xenograft [3]) | Histopathology of kidney parenchyma, salivary gland, stomach, thyroid, spleen and small intestine [5] | Urine test of protein ([6]; Day 21 after 0.4 MBq) | Urine test of protein ([6]; Day 38 after 0.4 MBq) | Total excretion in the urine (LNCaP xenograft [7]; 3 h) [%ID] | Tumor retention (uptake) (LNCaP xenograft [7]; 3 h after administration) [%ID/g] | Kidney uptake, comparison [211At]PSMA5 versus [211At]PSMA6 (LNCaP xenograft [7]) | Total excretion in the feces (LNCaP xenograft [7]; 24 h) [%ID] | Total excretion in the urine (LNCaP xenograft [7]; 24 h) [%ID] | Tumor retention (uptake) (LNCaP xenograft [7]; 24 h after administration) [%ID/g] | Kidney uptake, comparison [211At]PSMA5 versus [211At]PSMA6 [9] | Cellular uptake, LNCaP cells compared with PC-3 cells [10] | other results |
| --- | --- | --- | --- | --- | --- | --- | --- | --- | --- | --- | --- | --- | --- | --- |
| O=C(O)CCC(NC(=O)NC(CCCCNC(=O)C(Cc1ccc2ccccc2c1)NC(=O)c1ccc(CNC(=O)C(CCC(=O)O)NC(=O)C(CCC(=O)O)NC(=O)Cc2ccc([211At])cc2)cc1)C(=O)O)C(=O)O (centres unmarked) [[^211At]PSMA5] | No significant changes in body weight | excellent tumor growth suppression | no significant changes | 30 (1+) mg/dl | 30 (1+) mg/dl | 8.26 ± 5.00 | 30.6 ± 17.8 | similar | 35.2 ± 9.2 | 15.33 ± 6.3 | 40.7 ± 2.6 | similar | more highly incorporated into LNCaP cells | Uptake in the tumor xenografts and kidneys on planar images (LNCaP xenograft [1]): High uptake; BUN and Cre levels [2]: did not observe proteinuria or increased BUN and Cre levels; Metabolites, including astatide ions, present in urine (deastatination) ([4]; 3 h after injection, mice): not more than 1.0 % of the injected doses; Radioactivity in the blood and urine from intact molecules ([4]; 3 h post injection): most of the radioactivity observed in the blood and urine was from intact molecules; Mice with regenerated tubules in the cortical area of the kidney ([5]; 2 weeks after high dose 1 MBq): one out of four; Proteinuria ([6]; 8 weeks after administration): did not observe proteinuria; Urine test of protein ([6]; Day 10 after 0.4 MBq): 30 (1+) mg/dl; Urine test of protein ([6]; Day 14 after 0.4 MBq): 30 (1+) mg/dl; Tumor uptake, comparison with [211At]PSMA6 (LNCaP xenograft [7]; mouse, in vivo): higher tumor uptake than [^211At]PSMA6; Tumor-to-kidney uptake, comparison with [211At]PSMA6 (LNCaP xenograft [7]; mouse, in vivo): better tumor-to-kidney uptake; Histopathology of salivary glands and stomach [8]: No significant changes; Histopathology of the kidneys [8]: regenerated tubules were observed in the cortical area in all NOD/SCID mice; Cellular uptake, comparison between compounds [10]: higher uptake than [^211At]PSMA1 |
| O=C(O)CC[C@H](NC(=O)N[C@@H](CCCCNC(=O)[C@H](Cc1ccc2ccccc2c1)NC(=O)c1ccc(CNC(=O)[C@H](CCC(=O)O)NC(=O)[C@H](CCC(=O)O)NC(=O)c2ccc([18F])nc2)cc1)C(=O)O)C(=O)O [[^18F]PSMA-1007] | – | – | – | – | – | – | – | – | – | – | – | – | – | Urine excretion in PET [11]: high urine excretion; Urine excretion in PET [12]: minimal |
| O=C(O)CC[C@H](NC(=O)N[C@@H](CCCCNC(=O)[C@@H](Cc1ccc2ccccc2c1)NC(=O)c1ccc(CNC(=O)[C@H](CCC(=O)O)NC(=O)[C@H](CCC(=O)O)NC(=O)Cc2ccc([211At])cc2)cc1)C(=O)O)C(=O)O [[^211At]PSMA6] | – | – | no significant changes | 30 (1+) mg/dl | 30 (1+) mg/dl | – | 19.1 ± 4.5 | similar | 9.78 ± 0.79 | 6.20 ± 1.51 | 18.1 ± 2.2 | similar | – | Urine test of protein ([6]; Day 24 after 0.4 MBq): 100 (2+) mg/dl; Urine test of protein ([6]; Day 31 after 0.4 MBq): 30 (1+) mg/dl; Urine test of protein ([6]; Day 45 after 0.4 MBq): 30 (1+) mg/dl; Retention in the kidney, comparison with [211At]PSMA5 (LNCaP xenograft [7]; 24 h post-injection): higher retention in the kidney |
| O=C(O)CCC(NC(=O)NC(CCCCNC(=O)C(Cc1ccc2ccccc2c1)NC(=O)c1ccc(CNC(=O)CCC(=O)NCCCCC(NC(=O)CNC(=O)Cc2ccc([211At])cc2)C(=O)O)cc1)C(=O)O)C(=O)O (centres unmarked) [[^211At]PSMA1] | No significant changes in body weight | good treatment effect | – | – | – | 0.49 ± 0.37 | 12.4 ± 4.8 | – | 14.0 ± 4.8 | 14.7 ± 10.0 | 8.7 ± 3.5 | – | more highly incorporated into LNCaP cells | Kidney excretion, comparison with [211At]PSMA5 and [211At]PSMA6 (LNCaP xenograft [7]; mouse, in vivo): superior |
| O=C(O)CC[C@H](NC(=O)NC(CCCCNC(=O)c1ccc([211At])cc1)C(=O)O)C(=O)O (stereo partly drawn) [^211At-6, (2S)-2-(3-(1-carboxy-5-(4-211At-astatobenzamido)pentyl)ureido)-pentanedioic acid] | – | – | – | – | – | – | – | – | – | – | – | – | – | Kidney findings after treatment ([13]; 1.5 MBq): subcortical atrophy, and degenerative loss of proximal tubules; Proteinuria ([13]; animals treated with 1.5 MBq): developed proteinuria 1–2 months after treatment; Proteinuria ([13]; animals treated with 37 kBq): developed mild proteinuria that was later resolved |
